In the assay the target is T1, Steroid 17-alpha-hydroxylase/17,20 lyase (Homo sapiens, UniProt P05093).
T1 sequence (P05093 whole entry): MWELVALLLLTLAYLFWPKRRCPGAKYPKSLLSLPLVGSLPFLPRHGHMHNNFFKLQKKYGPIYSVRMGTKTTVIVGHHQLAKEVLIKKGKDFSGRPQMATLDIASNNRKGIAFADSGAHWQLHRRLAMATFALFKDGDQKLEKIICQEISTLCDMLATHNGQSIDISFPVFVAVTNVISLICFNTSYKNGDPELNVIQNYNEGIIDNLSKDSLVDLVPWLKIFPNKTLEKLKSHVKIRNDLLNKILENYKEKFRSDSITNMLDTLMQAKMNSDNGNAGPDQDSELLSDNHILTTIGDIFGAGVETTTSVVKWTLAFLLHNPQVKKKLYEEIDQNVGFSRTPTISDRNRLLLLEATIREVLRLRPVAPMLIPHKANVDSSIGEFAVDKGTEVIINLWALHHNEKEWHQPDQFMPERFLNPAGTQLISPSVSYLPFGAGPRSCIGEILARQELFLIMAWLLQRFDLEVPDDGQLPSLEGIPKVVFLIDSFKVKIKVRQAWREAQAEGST
The assay can be described thus: Inhibition of human Steroid 17-alpha-hydroxylase/17,20 lyase.

For orientation: IC50 means the midpoint of a concentration-inhibition curve.

`C[C@]12CC[C@H](O)CC1=CC[C@@H]1[C@@H]2CC[C@]2(C)C(c3cccnc3)=CC[C@@H]12` [ABIRATERONE] displayed an IC50 of approximately 1 nM.

Values taken from ChEMBL document CHEMBL1128152, “Active-site conformation of 17-(3-pyridyl)androsta-5,16-dien-3-ol, a potent inhibitor of the P450 enzyme C17-hydroxylase/C17-20 lyase” (Bioorg Med Chem Lett, 1995).
